Measured values reported in patent publication US7122543B2, “Substituted benzoic acid derivatives having NF-κB inhibiting action” (Daiichi Suntory Pharma Co., Ltd., priority 2001, dated 2006).

Tested on: NF-κB
Test: NF-κB luciferase reporter assay in A549/NF-κBLuc cells stimulated with IL-1β
Type: cell-based, human
Conditions: A549/NF-κBLuc cells; compound added 1 hour before IL-1β, 3 hours more incubation; luciferase activity as index
Experimental: Effects of Compounds on Human Lung Cancer A549 Cells (A549/NF-κBLuc) Stably Transfected with Luciferase Plasmid (pNFκB-Luc, Stratagene, U.S.A.) Having the NF-κB Regulatory Sequence
Using lipofectamine (Lifetech Oriental K.K., Tokyo), pNFκB-Luc were cotransfected with pSV2neo (Clontech, U.S.A.) into A549 cells (ATCC CCL185) according to the conventional method, and A549/NF-κBLuc stably transfected with pNFκB-Luc were selected by adding G418 sulfate (1 mg/ml, Lifetech Oriental K.K.) to the culture medium.
A compound prepared in an Example was added to A549/NF-κBLuc, then IL-1β which was able to activate the NF-κB was added at 1 hour thereafter and incubation was continued for 3 hours more. It has been made clear by using a luciferase activity as an index that the compound obtained in the Example suppresses the activation of NF-κB by stimulated with IL-1β.

Row | IC50 value [µg/mL] | Structure (SMILES)
1 | >45 | COC1=C(OC)C(=O)C(Cc2ccc(-c3ccncc3)c(C(=O)N[C@@H](C)c3ccccc3)c2)=C(C)C1=O [Example 74b, (S)-N-[5-(5,6-Dimethoxy-3-methyl-1,4-benzoquinon-2-yl)methyl-2-(4-pyridyl)benzoyl]-1-phenylethylamine]

Same assay, conditions: Homo sapiens, A549, A549/NF-κBLuc cells; compound added 1 hour before IL-1β, 3 hours more incubation; luciferase activity as index

Row | Structure (SMILES) | IC50 [µg/mL]
2 | COC1=C(OC)C(=O)C(Cc2cccc(C(=O)Nc3ccc(C(F)(F)F)cc3)c2-c2ccncc2)=C(C)C1=O [Example 73, N-[3-(45,6-Dimethoxy-3-methyl-1,4-benzoquinon-2-yl)methyl-2-(4-pyridyl)benzoyl]-4-trifluoromethylaniline] | > 30
3 | COC1=C(OC)C(=O)C(Cc2ccc(-c3ccncc3)c(C(=O)NC3CCCCC3)c2)=C(C)C1=O [Example 76a, N-[5-(5,6-Dimethoxy-3-methyl-1,4-benzoquinon-2-yl)methyl-2-(4-pyridyl)benzoyl]cyclohexyl-amine] | > 45
4 | COC1=C(OC)C(=O)C(Cc2ccc(-c3ccncc3)c(C(=O)NC3CCCC3)c2)=C(C)C1=O [Example 77a, N-[5-(5,6-Dimethoxy-3-methyl-1,4-benzoquinon-2-yl)methyl-2-(4-pyridyl)benzoyl]cyclopentylamine] | > 45
5 | COC1=C(OC)C(=O)C(Cc2ccc(-c3ccncc3)c(C(=O)NC3CC3)c2)=C(C)C1=O [Example 78a, N-[5-(5,6-Dimethoxy-3-methyl-1,4-benzoquinon-2-yl)methyl-2-(4-pyridyl)benzoyl]cyclopropyl-amine] | > 45

Results, then the molecule that gave them:

Row | IC50 [µg/mL] | Structure (SMILES)
6 | > 45 | COC1=C(OC)C(=O)C(Cc2ccc(-c3ccncc3)c(C(=O)N[C@@H](C)c3ccccc3)c2)=C(C)C1=O [Example 74a, (S)-N-[5-(5,6-Dimethoxy-3-methyl-1,4-benzoquinon-2-yl)methyl-2-(4-pyridyl)benzoyl]-1-phenylethylamine]
7 | > 45 | COC1=C(OC)C(=O)C(Cc2ccc(-c3ccncc3)c(C(=O)N[C@H](C)c3ccccc3)c2)=C(C)C1=O [Example 75a, (R)-N-[5-(5,6-Dimethoxy-3-methyl-1,4-benzoquinon-2-yl)methyl-2-(4-pyridyl)benzoyl]-1-phenylethylamine]
8 | > 45 | CCC(CC)NC(=O)c1cc(CC2=C(C)C(=O)C(OC)=C(OC)C2=O)ccc1-c1ccncc1 [Example 79a, N-[5-(5,6-Dimethoxy-3-methyl-1,4-benzoquinon-2-yl)methyl-2-(4-pyridyl)benzoyl]-1-ethylpropylamine]
